Laboratory results from publication PMC12527977, “Discovery of a novel tetrapeptide as glucose homeostasis modulator with bifunctionalities of targeting DPP‐IV and microbiota” (iMeta, 2025).
Where a SMILES comes first, the peptide text is derived from it.

Experiments:
DPP-IV [1] = target: T1, DPP-IV (Homo sapiens, UniProt P27487); experiment: Surface plasmon resonance (Biacore 8K, CM5 chip, 25 °C); assay type: binding; design: purchased QiZheng Biotech (Shanghai, China) IBDPP0901; conditions: SPR, Table S3; read-out: KD values
DPP-IV [2] = target: T1, DPP-IV; experiment: DPP-IV inhibitory activity of peptides (DPP-IV-Glo Protease Assay Kit); assay type: biochemical; design: purchased QiZheng Biotech (Shanghai, China) IBDPP0901; conditions: for DPP-IV inhibitory activity: DPP-IV-Glo Protease Assay Kit, control = 0, sheet S2F, in % (unit assumed)
Target sequence in this assay (P27487 whole entry): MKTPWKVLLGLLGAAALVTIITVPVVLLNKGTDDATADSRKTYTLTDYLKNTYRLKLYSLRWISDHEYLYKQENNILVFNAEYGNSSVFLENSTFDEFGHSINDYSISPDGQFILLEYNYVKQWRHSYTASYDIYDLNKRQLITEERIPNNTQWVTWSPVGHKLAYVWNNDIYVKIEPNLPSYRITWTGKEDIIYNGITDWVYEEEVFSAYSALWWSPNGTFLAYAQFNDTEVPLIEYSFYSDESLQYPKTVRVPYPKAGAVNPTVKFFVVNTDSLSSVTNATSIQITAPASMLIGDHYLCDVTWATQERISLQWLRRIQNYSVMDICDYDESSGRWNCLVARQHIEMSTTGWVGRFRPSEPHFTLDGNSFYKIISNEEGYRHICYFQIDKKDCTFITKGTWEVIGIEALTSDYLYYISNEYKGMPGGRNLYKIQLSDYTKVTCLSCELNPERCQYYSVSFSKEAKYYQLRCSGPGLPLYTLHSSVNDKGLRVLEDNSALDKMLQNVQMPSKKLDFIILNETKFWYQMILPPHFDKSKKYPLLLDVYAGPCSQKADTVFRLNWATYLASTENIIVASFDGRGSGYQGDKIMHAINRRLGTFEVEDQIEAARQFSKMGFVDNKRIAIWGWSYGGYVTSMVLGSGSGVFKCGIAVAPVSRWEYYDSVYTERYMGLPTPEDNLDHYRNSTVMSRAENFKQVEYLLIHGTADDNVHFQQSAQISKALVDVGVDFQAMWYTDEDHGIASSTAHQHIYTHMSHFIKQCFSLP

`CSCC[C@H](NC(=O)[C@H](C)NC(=O)[C@@H](N)C(C)C)C(=O)N1CCC[C@H]1C(=O)O` [VAMP] (H-VAMP-OH) was tested, and the Kd (DPP-IV [1]) was 6.89 µM, the inhibition at 1 µg/mL (DPP-IV [2]) was 50.7% and the inhibition at 20 µg/mL (DPP-IV [2]) was 52.1%. For the same compound, the inhibition at 50 µg/mL (DPP-IV [2]) was 68.9%, the inhibition at 100 µg/mL (DPP-IV [2]) was 77.6% and the inhibition at 200 µg/mL (DPP-IV [2]) was 81.5%. It also gave a DPP-IV inhibitory activity (DPP-IV [2]; replicate 1) of 68.9829, a DPP-IV inhibitory activity (DPP-IV [2]; replicate 2) of 67.7707 and a DPP-IV inhibitory activity (DPP-IV [2]; replicate 3) of 61.9665. It also gave an IC50 (DPP-IV [2]; Table S3, read-out: IC50) of 1 µM.
